Active and inactive are the calls of the source.
Legend:
Prothrombin = Prothrombin (Homo sapiens, UniProt P00734); experiment: Thrombin 1536 HTS Dose Response Confirmation. [Related pubchem assays: 1046 (Thrombin 1536 HTS; hits were confirmed in this assay)]; assay type: functional
[1] = general mammalian cell viability loss – activator set, cherry-pick, cytotoxicity control for miR-122 modulator project, dose response (AID 720690); assay type: functional, cell-based;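 further: HEK293T human cells scored for general mammalian cytotoxicity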
[2] = general mammalian cell viability loss – inhibitor set, cherry-pick, set 2, cytotoxicity control for miR-122 modulator project, dose response (AID 720697); assay type: functional, cell-based
Caspase-6 = Caspase-6 (Homo sapiens, UniProt P55212); experiment: inhibition of CASP6 peptide cleavage – biochemical, VEID-R110 fluorescence, cherry-pick, dose response (AID 720632)
[3] = MITF: Counter assay: A375 proliferation Measured in Cell-Based System Using Plate Reader - 2084-03_Inhibitor_Dose_DryPowder_Activity_Set8.; assay type: functional; details: A-375
[4] = MITF Orthogonal Assay: SK-MEL-5 CTG Assay Measured in Cell-Based System Using Plate Reader - 2084-02_Inhibitor_Dose_DryPowder_Activity_Set7.; assay type: functional
[5] = inhibitors of TRPM1-promoter reporter in SK-MEL-5 – cell-based, luciferase, dry powder, set 8, MITF inhibitor project, dose response (AID 624430); assay type: functional
[6] = target: Voltage-gated inwardly rectifying potassium channel KCNH2 (Homo sapiens, UniProt Q12809); experiment: concentration-dependent hERG rescue from blockers – cell-based, thallium flux, dose response (AID 2121); assay type: ADME
Sequence of Voltage-gated inwardly rectifying potassium channel KCNH2 (Q12809 whole entry): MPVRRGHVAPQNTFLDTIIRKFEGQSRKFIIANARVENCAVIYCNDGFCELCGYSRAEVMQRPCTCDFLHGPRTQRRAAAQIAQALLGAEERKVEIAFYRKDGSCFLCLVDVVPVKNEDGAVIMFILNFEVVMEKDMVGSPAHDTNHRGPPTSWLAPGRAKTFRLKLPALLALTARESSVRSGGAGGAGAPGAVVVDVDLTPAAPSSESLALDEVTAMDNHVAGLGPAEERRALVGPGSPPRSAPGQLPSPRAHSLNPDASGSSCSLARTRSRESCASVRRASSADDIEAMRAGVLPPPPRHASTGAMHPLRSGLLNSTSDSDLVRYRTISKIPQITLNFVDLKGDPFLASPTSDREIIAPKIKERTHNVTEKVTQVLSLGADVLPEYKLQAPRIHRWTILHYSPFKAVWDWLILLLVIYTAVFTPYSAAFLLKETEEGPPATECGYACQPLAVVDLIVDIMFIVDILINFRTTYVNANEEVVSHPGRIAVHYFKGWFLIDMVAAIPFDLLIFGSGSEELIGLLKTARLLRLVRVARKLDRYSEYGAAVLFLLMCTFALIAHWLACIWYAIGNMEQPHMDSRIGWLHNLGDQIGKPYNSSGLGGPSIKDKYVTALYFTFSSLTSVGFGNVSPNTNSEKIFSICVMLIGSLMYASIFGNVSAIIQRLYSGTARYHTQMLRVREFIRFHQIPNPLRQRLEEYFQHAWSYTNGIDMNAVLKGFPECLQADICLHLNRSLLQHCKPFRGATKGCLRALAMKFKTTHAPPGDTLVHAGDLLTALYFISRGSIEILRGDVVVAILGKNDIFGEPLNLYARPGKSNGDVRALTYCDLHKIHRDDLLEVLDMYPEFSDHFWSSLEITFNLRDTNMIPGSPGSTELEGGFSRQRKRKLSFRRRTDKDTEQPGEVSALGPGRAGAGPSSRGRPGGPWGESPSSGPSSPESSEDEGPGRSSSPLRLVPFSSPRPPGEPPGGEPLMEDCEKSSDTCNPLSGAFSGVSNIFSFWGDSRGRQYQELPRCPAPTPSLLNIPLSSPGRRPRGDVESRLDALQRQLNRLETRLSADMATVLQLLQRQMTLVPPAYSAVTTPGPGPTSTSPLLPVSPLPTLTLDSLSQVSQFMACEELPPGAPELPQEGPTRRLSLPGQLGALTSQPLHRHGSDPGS

Streptokinase A = target: T1, Streptokinase A (Streptococcus pyogenes serotype M1, UniProt P10520); experiment: viability-normalized secreted streptokinase activity reduction – plasminogen activation absorbance, OD405, dose response (AID 1914); assay type: functional, Streptococcus pyogenes M1 GAS;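 further: secreted streptokinase activity via plasminogen activation per viability signal from cell pellet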
T1 sequence (P10520 whole entry): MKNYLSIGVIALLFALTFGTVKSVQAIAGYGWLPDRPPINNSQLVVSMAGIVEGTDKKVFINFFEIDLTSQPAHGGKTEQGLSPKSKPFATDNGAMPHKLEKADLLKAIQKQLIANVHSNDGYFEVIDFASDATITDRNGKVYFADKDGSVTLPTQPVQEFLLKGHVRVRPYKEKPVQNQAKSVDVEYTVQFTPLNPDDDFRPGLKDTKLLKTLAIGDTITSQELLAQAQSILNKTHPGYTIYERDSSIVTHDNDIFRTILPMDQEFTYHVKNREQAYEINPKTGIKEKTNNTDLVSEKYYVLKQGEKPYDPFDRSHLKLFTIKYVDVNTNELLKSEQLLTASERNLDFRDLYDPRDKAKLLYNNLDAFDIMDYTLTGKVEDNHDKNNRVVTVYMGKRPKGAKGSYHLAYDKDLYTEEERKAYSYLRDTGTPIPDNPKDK

[7] = tested on: Streptococcus sp. 'group A'; experiment: Streptococcus pyogenes SK(-)GAS viability under kanamycin – luminescence, BacTiterGlo, confirmation, counter-screen for streptokinase expression inhibitor project, dose response (AID 1900); assay type: functional, organism-based
[8] = IC50 of Artemis nuclease activity blockers – biochemical, fluorescence intensity, dose response (AID 720701); assay type: functional;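 further: Artemis endonuclease enzyme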
Streptococcus = experiment: GAS UMAA2166 growth inhibition – luminescence, BacTiterGlo, counter-screen for streptokinase expression inhibitor project, dose response (AID 1915); assay type: functional, organism-based;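 further: potency for reduction of bacterial viability or growth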
[9] = target: Epstein-Barr nuclear antigen 1 (Epstein-Barr virus (strain B95-8) (HHV-4) (Human herpesvirus 4), UniProt P03211); experiment: inhibition of EBV nuclear antigen 1 DNA binding – biochemical, fluorescence polarization, 1536-well, dose response (AID 2381); parameters: species or system human gammaherpesvirus 4;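 further: fluorescence polarization of a Cy5 DNA probe bound by EBNA-1 protein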
[10] = target: Lytic switch protein BZLF1 (Epstein-Barr virus (strain B95-8) (HHV-4) (Human herpesvirus 4), UniProt P03206); experiment: inhibition of BZLF1 ZTA DNA binding – biochemical, fluorescence polarization, Epstein-Barr virus, 1536-well, counter-screen for EBNA-1 inhibitor project, dose response (AID 2377); parameters: species or system human gammaherpesvirus 4;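 further: fluorescence polarization of Cy5-labelled ZRE DNA probe bound by purified Zta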
[11] = target: Sphingosine 1-phosphate receptor 2 (Homo sapiens, UniProt O95136); experiment: Dose Response Cell Based Assay for Agonists of the S1P2 Receptor of Purchased Analogues. [Related pubchem assays: 729, 843, 854, 736 ]; assay type: functional
Sequence of Sphingosine 1-phosphate receptor 2 (O95136 whole entry): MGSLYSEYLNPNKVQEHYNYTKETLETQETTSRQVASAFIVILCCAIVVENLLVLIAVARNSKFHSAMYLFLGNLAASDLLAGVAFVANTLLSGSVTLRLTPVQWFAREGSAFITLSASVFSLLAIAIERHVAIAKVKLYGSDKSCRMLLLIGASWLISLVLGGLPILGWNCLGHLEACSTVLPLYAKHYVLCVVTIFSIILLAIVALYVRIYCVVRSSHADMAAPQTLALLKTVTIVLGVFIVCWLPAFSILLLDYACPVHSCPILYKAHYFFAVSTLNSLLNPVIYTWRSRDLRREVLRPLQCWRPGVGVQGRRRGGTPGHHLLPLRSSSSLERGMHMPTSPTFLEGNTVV

Ephrin type-A receptor 4 = Ephrin type-A receptor 4 (Mus musculus, UniProt Q03137); experiment: EphA4 ligand-binding antagonists – biochemical, colorimetric, mouse EphA4, primary screen (AID 689); assay type: functional
[12] = fluconazole-exposed Candida albicans growth modulators – fluorescence, retest, confirmation (AID 2467); assay type: functional, cell-based
[13] = NIH-3T3 fibroblast cytotoxicity, dose response, cytotoxicity control, cell-based, fluorescence, Alamar Blue, secondary assay (AID 2327); assay type: functional;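 further: NIH-3T3 mouse fibroblasts cultured with fluconazole at 8 µg/mL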
[14] = target: T2, Voltage-gated N-type calcium channel alpha-1B subunit/Amyloid beta A4 precursor protein-binding family A member 1 (Homo sapiens, UniProt Q00975+Q02410); assay type: protein assay
T2 sequence (Q00975 whole entry): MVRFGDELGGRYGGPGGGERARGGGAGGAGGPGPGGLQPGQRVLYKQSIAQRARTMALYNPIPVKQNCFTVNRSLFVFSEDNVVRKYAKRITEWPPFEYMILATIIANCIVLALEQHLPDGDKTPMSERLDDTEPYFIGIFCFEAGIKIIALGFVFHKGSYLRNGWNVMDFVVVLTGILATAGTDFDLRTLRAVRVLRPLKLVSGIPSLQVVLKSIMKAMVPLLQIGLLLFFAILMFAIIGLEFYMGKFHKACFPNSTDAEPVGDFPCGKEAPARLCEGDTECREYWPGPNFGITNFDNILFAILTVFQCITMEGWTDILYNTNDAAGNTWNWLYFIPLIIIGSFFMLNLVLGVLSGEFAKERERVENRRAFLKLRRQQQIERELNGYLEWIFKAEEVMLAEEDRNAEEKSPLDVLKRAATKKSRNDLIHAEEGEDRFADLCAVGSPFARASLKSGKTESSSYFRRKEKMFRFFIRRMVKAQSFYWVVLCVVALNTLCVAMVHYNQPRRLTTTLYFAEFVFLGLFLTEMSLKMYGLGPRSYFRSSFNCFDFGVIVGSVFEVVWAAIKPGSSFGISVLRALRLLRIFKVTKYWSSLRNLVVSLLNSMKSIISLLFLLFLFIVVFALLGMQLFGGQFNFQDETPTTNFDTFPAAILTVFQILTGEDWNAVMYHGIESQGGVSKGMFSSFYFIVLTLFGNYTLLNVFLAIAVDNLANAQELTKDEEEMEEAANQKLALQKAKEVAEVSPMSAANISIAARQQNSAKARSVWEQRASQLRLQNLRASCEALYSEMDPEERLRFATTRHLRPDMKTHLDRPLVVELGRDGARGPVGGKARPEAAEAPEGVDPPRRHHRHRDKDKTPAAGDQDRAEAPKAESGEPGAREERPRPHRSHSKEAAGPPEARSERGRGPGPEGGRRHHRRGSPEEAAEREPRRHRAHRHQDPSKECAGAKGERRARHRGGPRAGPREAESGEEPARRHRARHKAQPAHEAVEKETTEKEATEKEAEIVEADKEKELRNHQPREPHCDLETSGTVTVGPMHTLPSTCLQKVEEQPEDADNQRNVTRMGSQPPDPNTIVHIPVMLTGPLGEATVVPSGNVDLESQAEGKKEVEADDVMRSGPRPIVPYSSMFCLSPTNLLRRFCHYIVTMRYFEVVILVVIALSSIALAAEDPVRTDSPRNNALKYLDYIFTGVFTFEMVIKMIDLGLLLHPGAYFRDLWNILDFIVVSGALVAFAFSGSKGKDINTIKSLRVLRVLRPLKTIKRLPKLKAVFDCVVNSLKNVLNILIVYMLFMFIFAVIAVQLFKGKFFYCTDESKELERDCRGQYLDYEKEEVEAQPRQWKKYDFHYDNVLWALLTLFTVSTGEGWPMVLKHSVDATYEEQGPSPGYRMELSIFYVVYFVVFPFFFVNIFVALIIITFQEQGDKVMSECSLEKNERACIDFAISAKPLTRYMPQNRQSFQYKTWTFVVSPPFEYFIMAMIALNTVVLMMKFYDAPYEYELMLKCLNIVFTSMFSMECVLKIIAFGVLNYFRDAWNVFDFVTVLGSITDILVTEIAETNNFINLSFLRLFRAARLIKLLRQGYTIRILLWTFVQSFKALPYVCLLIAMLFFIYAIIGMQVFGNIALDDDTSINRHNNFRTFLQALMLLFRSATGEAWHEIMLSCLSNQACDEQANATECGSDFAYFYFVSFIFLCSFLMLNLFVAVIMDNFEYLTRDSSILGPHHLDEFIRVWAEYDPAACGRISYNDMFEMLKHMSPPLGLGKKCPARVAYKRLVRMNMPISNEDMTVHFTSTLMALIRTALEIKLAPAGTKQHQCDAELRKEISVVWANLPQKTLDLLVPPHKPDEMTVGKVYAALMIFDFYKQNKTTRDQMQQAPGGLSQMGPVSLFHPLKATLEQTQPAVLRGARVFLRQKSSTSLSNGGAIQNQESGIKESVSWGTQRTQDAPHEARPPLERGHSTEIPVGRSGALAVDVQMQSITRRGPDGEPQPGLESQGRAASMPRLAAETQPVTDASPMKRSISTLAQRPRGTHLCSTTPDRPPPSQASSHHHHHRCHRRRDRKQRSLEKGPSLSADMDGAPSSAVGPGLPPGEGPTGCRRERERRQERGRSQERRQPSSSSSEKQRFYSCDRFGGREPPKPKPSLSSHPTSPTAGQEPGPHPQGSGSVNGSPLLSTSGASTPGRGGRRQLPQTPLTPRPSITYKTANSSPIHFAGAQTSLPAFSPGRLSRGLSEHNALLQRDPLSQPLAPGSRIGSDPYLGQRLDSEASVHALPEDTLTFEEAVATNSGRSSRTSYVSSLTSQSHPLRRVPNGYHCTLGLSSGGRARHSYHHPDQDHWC
T2 sequence (Q02410 whole entry): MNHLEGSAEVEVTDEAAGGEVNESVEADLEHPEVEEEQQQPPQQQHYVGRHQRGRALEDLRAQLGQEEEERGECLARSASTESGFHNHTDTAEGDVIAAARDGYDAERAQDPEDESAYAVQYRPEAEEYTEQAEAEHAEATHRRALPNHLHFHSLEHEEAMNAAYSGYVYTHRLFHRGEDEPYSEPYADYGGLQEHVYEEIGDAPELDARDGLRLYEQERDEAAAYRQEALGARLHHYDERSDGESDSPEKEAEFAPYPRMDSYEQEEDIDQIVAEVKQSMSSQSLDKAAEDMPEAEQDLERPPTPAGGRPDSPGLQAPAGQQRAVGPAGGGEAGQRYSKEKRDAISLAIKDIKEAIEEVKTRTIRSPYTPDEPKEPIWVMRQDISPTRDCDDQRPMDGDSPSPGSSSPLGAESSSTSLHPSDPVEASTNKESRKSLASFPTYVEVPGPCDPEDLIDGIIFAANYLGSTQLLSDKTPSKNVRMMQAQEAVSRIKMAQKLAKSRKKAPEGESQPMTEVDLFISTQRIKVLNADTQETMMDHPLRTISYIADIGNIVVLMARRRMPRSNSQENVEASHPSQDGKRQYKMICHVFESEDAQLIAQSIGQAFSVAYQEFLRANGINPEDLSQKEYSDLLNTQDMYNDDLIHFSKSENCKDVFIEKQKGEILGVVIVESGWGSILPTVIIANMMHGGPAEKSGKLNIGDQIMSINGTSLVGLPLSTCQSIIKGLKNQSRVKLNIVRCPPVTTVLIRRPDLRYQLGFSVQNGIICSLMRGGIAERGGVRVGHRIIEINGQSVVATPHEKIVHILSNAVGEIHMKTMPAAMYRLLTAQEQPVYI

[15] = target: T2, Voltage-gated N-type calcium channel alpha-1B subunit/Amyloid beta A4 precursor protein-binding family A member 1; assay type: protein assay; remark: listed apart in the source
[16] = HEK-293T viability loss after treatment – luminescence, T-cell screen hits, cytotoxicity control for TCR NF-kB inhibitor project, dose response (AID 489026); assay type: functional, cell-based;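 further: cells exposed to compound about 14 hours before the viability readout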
[17] = Luminescence-based dose response cell-based high throughput screening assay for cytotoxic compounds using the IEC-6 intestinal epithelial cell line. [Related pubchem assays: 1858 (Summary AID.), 1825 (Counterscreen.), 1907 (Confirmation screen.)]; assay type: functional
cells [18] = experiment: cells
Major prion protein = Major prion protein (Homo sapiens, UniProt P04156); assay type: functional, cell-based
Estrogen receptor beta = Estrogen receptor beta (Homo sapiens, UniProt Q92731);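 further: recombinant ER-beta bound to coactivator SRC1 peptide in presence of estradiol agonist; inhibitors block coactivator peptide binding and lower the FRET signal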
Cytochrome P450 2C19 = Cytochrome P450 2C19 (Homo sapiens, UniProt P33261); experiment: Cytochrome panel assay with activity outcomes. Panel member name: p450-cyp2c19 Compounds with AC50 equal or less than 10 uM are considered active; assay type: functional; details: read-out: AC50
fMet-Leu-Phe receptor = fMet-Leu-Phe receptor (Homo sapiens, UniProt P21462); experiment: formyl peptide receptor binders – dose response (AID 519); assay type: functional
Sequence of fMet-Leu-Phe receptor (P21462 whole entry): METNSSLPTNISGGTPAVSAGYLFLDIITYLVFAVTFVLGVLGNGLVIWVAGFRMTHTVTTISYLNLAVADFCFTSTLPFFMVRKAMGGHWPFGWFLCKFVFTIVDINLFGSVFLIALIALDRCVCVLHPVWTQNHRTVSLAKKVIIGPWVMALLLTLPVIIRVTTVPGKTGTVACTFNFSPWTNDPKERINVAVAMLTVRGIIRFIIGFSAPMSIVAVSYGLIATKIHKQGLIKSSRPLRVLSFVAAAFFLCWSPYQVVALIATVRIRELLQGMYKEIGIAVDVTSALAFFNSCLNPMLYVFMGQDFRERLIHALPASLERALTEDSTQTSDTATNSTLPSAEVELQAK

Nonstructural protein 1 = Nonstructural protein 1 (Influenza A virus, UniProt Q194T2); assay type: functional, Influenza A virus (A/California/07/2009(H1N1))
[19] = loss of viability in HepG2 cells – cell-based, CellTiter-Glo, cherry-picked, cytotoxicity control for Shn3 inhibitor project, dose response (AID 624134); assay type: functional
[20] = Trypanosoma cruzi growth suppression in host cells – NIH3T3 host cells, beta-gal luminescence, confirmation (AID 2044); assay type: functional, cell-based;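 further: intracellular parasites grown in NIH/3T3 mouse fibroblasts as host cells; luminescent beta-galactosidase reporter signal from transgenic T. cruzi replicating inside host cells; inhibitors lower the luminescence signal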
[21] = non-specific 3'UTR reporter inhibition in Clone20-Shn3RL – cell-based, Renilla luciferase, cherry-picked, counter-screen for Shn3 inhibitor project, dose response (AID 624133); assay type: functional
[22] = reduction of Shn3 3'UTR-driven luciferase in osteoblasts – cell-based, Clone20 osteoblasts, firefly luciferase, cherry-picked, dose response (AID 624132); assay type: functional;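 further: firefly luciferase luminescence from reporter carrying the Shn3 3'UTR in osteoblasts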
INS1 = experiment: INS-1E survival protection against cytokine death – cell-based, luminescence, retest, dose response (AID 449756); assay type: functional; details: Rattus norvegicus;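 further: cell death triggered by IL-1 beta plus TNF-alpha plus IFN-gamma mixture; protective hits raise ATP signal compared with cytokine alone wells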
cells [23] = assay type: functional, cell-based
cells [24] = assay type: functional, cell-based; remark: listed apart in the source
[25] = NIH3T3 cell viability loss – ATP luminescence, mouse fibroblasts, counter-screen, dose response (AID 2010); assay type: functional, cell-based;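 further: cells exposed to compound for about 90 hours before reading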
[26] = Shn3 3'UTR reporter signal decrease – cell-based, Clone20 osteoblasts, firefly luciferase, cherry-pick, set 2, Schnurri-3 inhibitor project, dose response (AID 720490); assay type: functional;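 further: actives lower the luminescence signal as inhibitors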
Cytochrome P450 2C9 = Cytochrome P450 2C9 (Homo sapiens, UniProt P11712)
[27] = Luminescence Cell-Based Dose Response to Identify Activators of 5'UTR Stem-Loop Driven Prion Protein mRNA Translation in H4-C Neuroglioblastoma Cells. [Related pubchem assays: 1829 (Project Summary), 1814 (Primary HTS)]; assay type: functional
H4 = experiment: Luminescence Cell-Based Dose Response HTS to Identify Activators of 5'UTR Stem-Loop Driven Prion Protein mRNA Translation in H4 Neuroglioblastoma Cells. [Related pubchem assays: 1829 (Project Summary), 1814 (Primary HTS)]; assay type: functional; details: Homo sapiens
[28] = Luminescence Cell-Based Dose Confirmation to Identify Activators of 5'UTR Stem-Loop Driven Alpha-Synuclein mRNA Translation in H4 Neuroglioblastoma Cells. [Related pubchem assays: 1829 (Project Summary), 1814 (Primary HTS)]; assay type: functional
[29] = Luminescence Cell-Based Dose Response HTS to Identify Activators of Luciferase Translation or Activity in H4 […] Cells. [Related pubchem assays: 1829 (Project Summary), 1814 (Primary HTS)]; assay type: functional
[30] = Luminescence Cell-Based Dose Response to Identify Activators of Luciferase Translation or Activity in H4-C Neuroglioblastoma Cells. [Related pubchem assays: 1829 (Project Summary), 1814 (Primary HTS)]; assay type: functional

CSc1nc(-c2ccco2)nn1C(=O)c1ccco1
IC50 (Prothrombin): 0.22 µM (active)

C[C@H](CO)N1C[C@H](C)[C@H](CN(C)Cc2ccccc2)Oc2cc(/C=C/c3ccccc3)ccc2S1(=O)=O
AC50 [1]: 22.7 µM (active)
AC50 [2]: 34.5 µM (active)

CN1C(=O)c2cc(NC(=O)C3CC3)ccc2OC[C@H]2O[C@@H](CC(=O)O)CC[C@@H]21
AC50 (Caspase-6): 23.1 µM (active)

CCN1CCN(C2=C(Nc3ccc(OC)cc3)C(=O)c3ccccc3C2=O)CC1
AC50 [3]: > 70 µM (inactive)
AC50 [4]: 12.2 µM (active)
AC50 [5]: 6.87 µM (active)

C=CCn1c(=S)[nH]c2cc(-c3ccccc3)sc2c1=O
EC50 [6]: 1.11 µM (active)

COc1cc2c(C#N)c(N3CCN(c4ccccc4OC)CC3)nc(N)c2c(N)n1
EC50 (Streptokinase A): 22.6 µM (active)
EC50 [7]: 4.63 µM (active)
IC50 [8]: > 20 µM (inactive)
EC50 (Streptococcus): > 150 µM (not active)

Cc1c(Cl)cccc1NC(=O)Cc1ccc([N+](=O)[O-])cc1
IC50 (Prothrombin): > 50 µM (not active)

CNS(=O)(=O)c1cccc(C(=O)OCC(=O)Nc2ccc(-c3nc4ccc(C)cc4s3)cc2)c1
IC50 [9]: 5.63 µM (active)
IC50 [10]: > 111 µM (not active)

Cc1cc(C(=O)CN2C(=O)C(=O)N(Cc3ccccc3)C2=O)c(C)n1Cc1ccco1
EC50 [11]: > 30 µM (not active)

Cc1cc(C(=O)CN2C(=O)C(=O)N(Cc3ccco3)C2=O)c(C)n1Cc1ccccc1
EC50 [11]: > 30 µM (not active)

Cc1ccc2cc(C=C(C#N)C#N)c(N3CCCCC3)nc2c1
IC50 (Ephrin type-A receptor 4): 24.4 µM (active)
EC50 [12]: > 38 µM (not active)
EC50 [13]: 46.4 µM (active)

O=C(Nc1nc2cc3c(cc2s1)OCCO3)c1ccc(N2C(=O)CCC2=O)cc1
IC50 [14]: > 50 µM (inactive)
IC50 [9]: 15.6 µM (not active)
IC50 [15]: 23 µM (active)
IC50 [10]: 15.1 µM (not active)

CC(=O)O[C@H]1C(=O)[C@@]2(C)C([C@H](OC(=O)c3ccccc3)[C@]3(O)C[C@H](OC(=O)[C@H](O)[C@@H](NC(=O)Cc4ccccc4)c4ccccc4)C(C)=C1C3(C)C)[C@]1(OC(C)=O)CO[C@@H]1C[C@@H]2O (some centres undefined)
IC50 [16]: > 80 µM (inactive)
IC50 [17]: 0.396 µM (active)

COc1cccc(N2CC(=O)C(c3nc4ccccc4s3)=C2N)c1
IC50 (cells [18]): > 138 µM (inactive)
IC50 (Major prion protein): 5.11 µM (active)

COc1ccc(CCNC(=O)COC(=O)c2ccc([N+](=O)[O-])o2)cc1
AC50 (Caspase-6): 24.1 µM (active)

O=C1C(Nc2ccc(F)cc2F)=C(N2CCCCC2)C(=O)c2ccccc21
AC50 [3]: 21.8 µM (active)
AC50 [4]: 3.64 µM (active)
AC50 [5]: 0.931 µM (active)

O=S(=O)(c1cccc(-c2nc3ccccc3s2)c1)N1CCOCC1
IC50 (Estrogen receptor beta): > 50 µM (not active)

COc1cc(C2C(C(=O)c3ccc(C)o3)=C(O)C(=O)N2CCc2ccccc2)ccc1O (centres undefined)
AC50 (Cytochrome P450 2C19): 11.2 µM (inconclusive)
Ki (fMet-Leu-Phe receptor): 19.7 µM (inactive)

COc1cccc(C(NC(C)=O)c2ccc3cccnc3c2O)c1 (centres undefined)
EC50 [12]: 1.38 µM (active)
IC50 (Nonstructural protein 1): 14.3 µM (active)
AC50 [19]: 2.61 µM (active)
EC50 [13]: 3.88 µM (inconclusive)
EC50 [20]: 1.07 µM (active)
AC50 [21]: 1.04 µM (active)
AC50 [22]: 1.39 µM (active)
AC50 (INS1): 0.886 µM (active)
IC50 [17]: 1.48 µM (active)
EC50 (cells [23]): > 350 µM (not active)
EC50 (cells [24]): 7.47 µM (active)
EC50 [25]: 1.07 µM (active)

COCOCCn1cc(CN2CCS(=O)(=O)N(Cc3ccc(-c4ccc(Cl)c(Cl)c4)cc3)C(C(C)C)C2=O)nn1 (centres undefined)
AC50 [19]: > 70 µM (inactive)
AC50 [21]: 7.09 µM (active)
AC50 [22]: 1.35 µM (active)
AC50 [26]: 1.86 µM (active)

COc1ccc(NC(=O)C2C(=O)NC3(C)CC2c2ccccc2O3)cc1 (centres undefined)
Ki (fMet-Leu-Phe receptor): > 66.7 µM (inactive)

CC(C)CN(CCC(=O)O)CC(C)C
IC50 (Estrogen receptor beta): > 50 µM (not active)

COc1ccccc1NC(=S)NC(=O)c1ccc(-c2ccc(Cl)cc2)o1
EC50 [6]: 0.1 µM (active)
AC50 (Cytochrome P450 2C9): inconclusive

COCc1nc2oc3ccc(C)cc3c(=O)c2cc1C(=O)OC
EC50 [27]: 0.433 µM (active)
EC50 (H4): > 120 µM (not active)
EC50 [28]: 0.282 µM (active)
EC50 [29]: < 0.1 µM (inconclusive)
EC50 [30]: 0.402 µM (active)

Cc1ccccc1OCCOC(=O)c1cc(S(=O)(=O)N2CCCCC2)ccc1N1CCOCC1
AC50 [19]: > 70 µM (inactive)
AC50 [21]: > 70 µM (inactive)
AC50 [22]: 3.79 µM (active)
AC50 [26]: 4.28 µM (active)

Source: ChEMBL document CHEMBL1201862, “PubChem BioAssay data set” (2004)
